We go through 19 compounds from patent EP2951180B1, “2,6,7,8 SUBSTITUTED PURINES AS HDM2 INHIBITORS” (Merck Sharp & Dohme Corp., priority 2013, dated 2014).

The target of this experiment is T1, HDM2 (Homo sapiens, UniProt Q00987).
T1 construct: Thioredoxin (N); made in house; host or cells: E. coli strain BL21(DE3)Rosetta
Briefly: HDM2 FRET assay (inhibition of binding of FITC labeled p53-pocket peptide to HDM2). Particulars: for IC50: read-out: FRET IC50. A digest of the protocol: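 Compounds were tested in 10-point serial dilution against 0.5 nM recombinant HDM2 binding 3 nM fluorescein-labeled p53-pocket peptide. Detection used 0.25 nM terbium cryptate anti-6xHis antibody in PBS buffer containing 0.01% BSA and 0.01% Tween-20.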

The mark [1] stands for this setting: 0.5 nM HDM2 (residues 17 to 125), 3nM peptide, two hour incubation at room temperature.

Read-outs that look alike come from different tables or passages of the source.

T1 sequence (Q00987 17-125): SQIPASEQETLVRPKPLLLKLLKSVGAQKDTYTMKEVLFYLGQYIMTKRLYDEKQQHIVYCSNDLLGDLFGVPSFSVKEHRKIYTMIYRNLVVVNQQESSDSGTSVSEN

As for `C[C@@H](Nc1nc(C(=O)O)nc2nc(-c3cc(C4CC4)ccn3)n(C[C@H]3CC[C@H](C)CC3)c12)C1CCC1` [Example 15.17, 6-{[(1R)-1-cyclobutylethyl]amino}-8-(4-cyclopropylpyridin-2-yl)-7-[(trans-4-methylcyclohexyl)methyl]-7H-purine-2-carboxylic acid], the IC50 under setting [1] is 2.09 nM.

Regarding `C[C@@H](Nc1nc(N(C)CC(=O)O)nc2nc(N3CCOC[C@H]3c3ccccc3)n(C[C@H]3CC[C@H](C)CC3)c12)C1CCC1` [Example 13.8, N-(6-{[(1R)-1-cyclobutylethyl]amino}-7-[(trans-4-methylcyclohexyl)methyl]-8-[(3R)-3-phenylmorpholin-4-yl]-7H-purin-2-yl)-N-methylglycine], the IC50 under setting [1] was 120 nM.

Take `C[C@H](Nc1nc2nc(C(=O)O)nc(N[C@H](C)C3CCC3)c2n1Cc1ccc(C(F)(F)F)cc1)c1cccc(F)c1` [Example 9.39, 6-{[(1R)-1-cyclobutylethyl]amino}-8-{[(1S)-1-(3-fluorophenyl)ethyl]amino}-7-[4-(trifluoromethyl)benzyl]-7H-purine-2-carboxylic acid]: the IC50 (Table 9) was found to be 0.753 nM.

Turning to `Cc1nc(-c2cccc(-c3nc(-c4noc(=O)[nH]4)nc4nc(N5CCOC[C@H]5c5ccccc5)n(C[C@H]5CC[C@H](C)CC5)c34)c2)no1` [Example 16.112, 3-{7-[(trans-4-methylcyclohexyl)methyl]-6-[3-(5-methyl-1,2,4-oxadiazol-3-yl)phenyl]-8-[(3R)-3-phenylmorpholin-4-yl]-7H-purin-2-yl}-1,2,4-oxadiazol-5(4H)-one], under setting [1], the IC50 amounted to 18 nM.

For `COC1(c2nc3nc(-c4noc(=O)[nH]4)nc(-c4cncc(Cl)c4)c3n2C[C@H]2CC[C@H](C)CC2)CCCC1` [Example 23.77, 3-{6-(5-chloropyridin-3-yl)-8-(1-methoxycyclopentyl)-7-[(trans-4-methylcyclohexyl)methyl] -7H-purin-2-yl}-1,2,4-oxadiazol-5(4H)-one], under “Table 23”, the half-maximal inhibitory concentration (IC50) came to 8.06 nM.

On to `C[C@@H](Nc1nc(-c2noc(=O)[nH]2)nc2nc(N3CCOC[C@H]3c3ccccc3)n(C[C@H]3CC[C@H](C)CC3)c12)C1CCC1` [Example 11.11, 3-(6-{[(1R)-1-cyclobutylethyl]amino}-7-[(trans-4-methylcyclohexyl)methyl]-8-[(3R)-3-phenylmorpholin-4-yl]-7H-purin-2-yl)-1,2,4-oxadiazol-5(4H)-one], for which, where the note is “Table 11”, the IC50 turned out to be 0.626 nM.

For `C[C@@H](Nc1nc(-c2noc(=O)[nH]2)nc2nc(N3CCC[C@@H]4CCCC[C@H]43)n(C[C@H]3CC[C@H](C)CC3)c12)C1CCC1` [Example 11.61, 3-(6-{[(1R)-1-cyclobutylethyl]amino}-7-[(trans-4-methylcyclohexyl)methyl]-8-[(4aS,8aR)-octahydroquinolin-1(2H)-yl]-7H-purin-2-yl)-1,2,4-oxadiazol-5(4H)-one], the IC50 (Table 11) worked out at 5.13 nM.

In the case of `CC(C)CN(C)c1nc2nc(-c3noc(=O)[nH]3)nc(N[C@H](C)C3CCC3)c2n1C[C@H]1CC[C@H](C)CC1` [Example 11.48, 3-(6-{[(1R)-1-cyclobutylethyl]amino}-7-[(trans-4-methylcyclohexyl)methyl]-8-[methyl(2-methylpropyl)amino] -7H-purin-2-yl)-1,2,4-oxadiazol-5(4H)-one], the IC50 (Table 11) was 6.71 nM.

Consider `Cc1ccc(C2CCCCN2c2nc3nc(-c4noc(=O)[nH]4)nc(N[C@H](C)C4CCC4)c3n2C[C@H]2CC[C@H](C)CC2)o1` (stereo partly drawn) [Example 11.78, 3-(6-{[(1R)-1-cyclobutylethyl]amino}-7-[(trans-4-methylcyclohexyl)methyl]-8-[2-(5-methylfuran-2-yl)piperidin-1-yl]-7H-purin-2-yl)-1,2,4-oxadiazol-5(4H)-one], for which, for the setting “Table 11”, the concentration for half-maximal inhibition (IC50) is 37.1 nM.

Turning to `C[C@H](O)[C@H](Nc1nc2nc(-c3noc(=O)[nH]3)nc(-c3cccc(Cl)c3)c2n1C[C@H]1CC[C@H](C)CC1)c1ccccc1` [Example 16.8, 3-(6-(3-chlorophenyl)-8-(((1R,2S)-2-hydroxy-1-phenylpropyl)amino)-7-(((trans)-4-methylcyclohexyl)methyl)-7H-purin-2-yl)-1,2,4-oxadiazol-5(4H)-one], the half-maximal inhibitory concentration (IC50) under setting [1] is 1.49 nM.

Turning to `C[C@@H](Nc1nc(-c2noc(=O)[nH]2)nc2nc(C(C)(F)c3ccccc3)n(C[C@H]3CC[C@H](C)CC3)c12)C1CCC1` (single isomer, unassigned) [Example 22.77], the IC50 (Table 22) is 2.95 nM.

For `CC([C@H]1CC[C@H](C)CC1)n1c(N2CCOC[C@H]2c2ccccc2)nc2nc(-c3n[nH]c(=O)o3)nc(-c3cncc(Cl)c3)c21` (single isomer, unassigned) [Example 18.14], the IC50 (Table 18) worked out at 0.62 nM.

Turning to `C[C@@H](Nc1nc(CO)nc2nc(N3CCOC[C@H]3c3ccccc3)n(Cc3ccc(C(F)(F)F)cc3)c12)C1CCC1` [Example 12.33, (6-{[(1R)-1-cyclobutylethyl]amino}-8-[(3R)-3-phenylmorpholin-4-yl]-7-[4-(trifluoromethyl)benzyl]-7H-purin-2-yl)methanol], the IC50 under setting [1] is 151 nM.

Turning to `C[C@@H](Nc1nc(-c2noc(=O)[nH]2)nc2nc(C(C)(O)c3ccn(C)n3)n(C[C@H]3CC[C@H](C)CC3)c12)C1CCC1` (stereo partly drawn) [Example 22.55, 3-(6-{[(1R)-1-cyclobutylethyl]amino}-8-[1-hydroxy-1-(1-methyl-1H-pyrazol-3-yl)ethyl]-7-[(trans-4-methylcyclohexyl)methyl] -7H-purin-2-yl)-1,2,4-oxadiazol-5(2H)-one], under “Table 22”, the IC50 came out at 22.7 nM.

With `CCC1=CCC(Cn2c(-c3cc(C(C)C)ccn3)nc3nc(-c4noc(=O)[nH]4)nc(N[C@H](C)C4CCC4)c32)CC1` (stereo partly drawn) [Example 18.7, 3-(6-(((R)-1-cyclobutylethyl)amino)-7-((4-ethylcyclohex-3-en-1-yl)methyl)-8-(4-isopropylpyridin-2-yl)-7H-purin-2-yl)-1,2,4-oxadiazol-5(4H)-one], for the setting “Table 18”, the IC50 was 44 nM.

On to `Cc1cccc(-c2nc3nc(C(=O)O)nc(NC4CCC(C)CC4C)c3n2Cc2ccc(C(F)(F)F)cc2)c1` (stereo not shown) [Example 6.34, 6-[(2,4-dimethylcyclohexyl)amino]-8-(3-methylphenyl)-7-[4-(trifluoromethyl)benzyl]-7H-purine-2-carboxylic acid], for which the IC50 (Table 6) was determined as 1140 nM.

Turning to `C[C@@H](Nc1nc(-c2n[nH]c(=O)o2)nc2nc(N3CCO[C@H]4CCCC[C@H]43)n(C[C@H]3CC[C@H](C)CC3)c12)C1CCC1` (single isomer, unassigned) [Example 11.161], where the note is “Table 11”, the half-maximal inhibitory concentration (IC50) worked out at 29.5 nM.

`Cc1cccc(-c2nc3nc(C(=O)O)nc(N4CCCC4CC(C)C)c3n2Cc2ccc(C(F)(F)F)cc2)c1` (stereo not shown) [Example 6.76, 8-(3-methylphenyl)-6-[2-(2-methylpropyl)pyrrolidin-1-yl]-7-[4-(trifluoromethyl)benzyl]-7H-purine-2-carboxylic acid]: under “read-out: inh. at 1000 nM (FRET)”, the inhibition at 1 µM worked out at 32%.

On to `CCCN(c1nc2nc(C(=O)O)nc(N[C@H](C)C3CCC3)c2n1Cc1ccc(C(F)(F)F)cc1)[C@@H](C)c1ccccc1` [Example 9.49, 6-{[(1R)-1-cyclobutylethyl]amino}-8-{[(1S)-1-phenylethyl] (propyl)amino}-7-[4-(trifluoromethyl)benzyl]-7H-purine-2-carboxylic acid], for which the IC50 (Table 9) was found to be 22.8 nM.
